One data set relates to Liver microsomes. Conditions: human, up to 10 µM.
The nature of data set [1]: AUC in C57 mouse at 10 mg/kg, po. The class given is ADME, organism-based. Also noted: dose 10 mg/kg, route oral. Conditions: plasma.
Data set [2] in a line: Tmax in C57 mouse at 10 mg/kg, po. Type of data set: ADME, organism-based. Also noted: dose 10 mg/kg, route oral. Conditions: in vivo.
Data set [3] is described as follows: Oral bioavailability in C57 mouse at 10 mg/kg. Type of data set: ADME, organism-based. The conditions noted are these: in vivo.
A short description of data set [4]: Cmax in C57 mouse at 10 mg/kg, po. Also noted: dose 10 mg/kg, route oral. The class given is ADME, organism-based. Conditions: in vivo.
The nature of data set [5]: Plasma concentration in nude mouse xenografted with human LOX cells at 200 mg/kg, po measured at 8 hrs. The class given is ADME, organism-based. Also on record: dose 200 mg/kg, route oral. Background: A xenograft is tissue or cells of one species grown in another, often human tumour cells in immunodeficient mice.
Data set [6] can be described thus: Drug uptake in tumor of nude mouse xenografted with human LOX cells at 200 mg/kg, po measured at 8 hrs. Type of data set: ADME, organism-based, Neoplasm. Also noted: dose 200 mg/kg, route oral. The conditions noted are these: read-out: Drug uptake.
The nature of data set [7]: Plasma concentration in nude mouse xenografted with human LOX cells at 100 mg/kg, po measured at 8 hrs. The class given is ADME, organism-based. Also on record: dose 100 mg/kg, route oral.
Data set [8] can be described thus: Drug uptake in tumor of nude mouse xenografted with human LOX cells at 100 mg/kg, po measured at 8 hrs. The class given is ADME, organism-based, Neoplasm. Also on record: dose 100 mg/kg, route oral. The conditions noted are these: read-out: Drug uptake.

Molecules are shown by their SMILES.

These results are taken from ChEMBL document CHEMBL2434833, “Optimization of benzodiazepinones as selective inhibitors of the X-linked inhibitor of apoptosis protein (XIAP) second baculovirus IAP repeat (BIR2) domain” (J Med Chem, 2013).

For orientation: AUC means the area under the concentration-time curve, a measure of exposure. Low readings indicate less exposure, high ones more exposure. As usually defined, the Tmax is the time from dosing to the highest level. For orientation: bioavailability means dose-corrected exposure relative to a reference, in per cent. Low readings indicate little systemic uptake, high ones much systemic uptake. Broadly, the Cmax is the highest concentration seen after dosing.

For the compound `CN[C@@H](C)C(=O)N[C@@H]1C(=O)N(Cc2c(OC)ccc3ccccc23)c2ccc(C#N)cc2N(C(C)=O)[C@H]1C.Cl`, in the data set with Liver microsomes, the Stability result is “Stable”. In [1], this compound yielded an AUC of 5980 ng·h/mL. For the same compound, the Tmax in [2] came to 4 h. For the same compound, in [3], the bioavailability turned out to be 8%. In [4], this compound displayed a maximum concentration (Cmax) of 873 ng/mL.

Turning to `CN[C@@H](C)C(=O)N[C@@H]1C(=O)N(Cc2c(C)ccc3ccccc23)c2ccc(C#N)cc2N(C(C)=O)[C@H]1C.Cl`, the concentration at 8 h in data set [5] is 5 µM; in [6], 7.7 µM. The area under the curve (AUC) in data set [1] is 7870 ng·h/mL. Also, the Tmax in data set [2] was 0.25 h. This compound gave a bioavailability in [3] of 28%. Further, in data set [4], the concentration peaked (Cmax) at 823 ng/mL.

Take `CN[C@@H](C)C(=O)N[C@H](C(=O)N1CCC[C@H]1c1nc(C(=O)c2ccc(F)cc2)cs1)C1CCCCC1` [LCL-161]: the concentration at 8 h is 3.3 µM in data set [7] and 18.4 µM in data set [8].
